Measured values taken from patent US9179678B2, “Substituted [1,2,4]triazoles and substituted tetrazoles as herbicides” (SYNGENTA LIMITED, priority 2012, dated 2015).

Legend:
Type in all cases: in vivo
[1] = test system: Setaria faberi (SETFA); test: Post-emergence glasshouse herbicide test; conditions: POST Application, 1000 g/h, after 13 days
Method in brief: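 This post-emergence glasshouse herbicide test used SETFA plants raised in pots of standard soil for 8 days under controlled conditions (24/16° C., 14 hours light, 65% humidity). An aqueous spray made from acetone/water (50:50) with 0.5% Tween 20 was applied. Plants were watered twice daily, and percentage plant damage was assessed 13 days later.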

[2] = test system: Ipomoea hederacea (IPOHE); test: Pre-emergence glasshouse herbicide test; conditions: PRE Application, 1000 g/h, after 13 days
[3] = test system: Amaranthus retoflexus (AMARE); test: Pre-emergence glasshouse herbicide test; conditions: PRE Application, 1000 g/h, after 13 days
[4] = test system: Alopecurus myosuroides (ALOMY); test: Pre-emergence glasshouse herbicide test; conditions: PRE Application, 1000 g/h, after 13 days
Method in brief: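 This pre-emergence glasshouse test used pots of standard soil sown with ALOMY seed and cultivated for one day under controlled conditions of 24/16° C., 14 hours light and 65% humidity. An aqueous spray from an acetone/water (50:50) formulation with 0.5% Tween 20 was applied. After 13 days of further growth with twice-daily watering, plant damage was rated as a percentage.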

[5] = test system: Echinochloa crus-galli (ECHCG); test: Pre-emergence glasshouse herbicide test; conditions: PRE Application, 1000 g/h, after 13 days
[6] = test system: Setaria faberi (SETFA); test: Pre-emergence glasshouse herbicide test; conditions: PRE Application, 1000 g/h, after 13 days
[7] = test system: Solanum nigrum (SOLNI); test: Pre-emergence glasshouse herbicide test; conditions: PRE Application, 1000 g/h, after 13 days
[8] = test system: Ipomoea hederacea (IPOHE); test: Post-emergence glasshouse herbicide test; conditions: POST Application, 1000 g/h, after 13 days
[9] = test system: Amaranthus retoflexus (AMARE); test: Post-emergence glasshouse herbicide test; conditions: POST Application, 1000 g/h, after 13 days
[10] = test system: Alopecurus myosuroides (ALOMY); test: Post-emergence glasshouse herbicide test; conditions: POST Application, 1000 g/h, after 13 days
Method in brief: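 In this glasshouse post-emergence test, ALOMY plants were cultivated in standard soil for 8 days under controlled conditions (24/16° C. day/night, 14 hours light, 65% humidity). They were then treated with a spray derived from an acetone/water (50:50) formulation with 0.5% Tween 20, grown on with watering twice daily, and rated for percentage damage after 13 days.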

[11] = test system: Echinochloa crus-galli (ECHCG); test: Post-emergence glasshouse herbicide test; conditions: POST Application, 1000 g/h, after 13 days
[12] = test system: Solanum nigrum (SOLNI); test: Post-emergence glasshouse herbicide test; conditions: POST Application, 1000 g/h, after 13 days
Method in brief: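 This glasshouse post-emergence herbicide test used Solanum nigrum plants sown in standard soil and cultivated for 8 days under controlled conditions (24/16° C. day/night, 14 hours light, 65% humidity). An aqueous spray from an acetone/water (50:50) solution with 0.5% Tween 20 was applied. Plants were watered twice daily, and damage to each plant was assessed as a percentage 13 days later.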

Compound | percentage damage caused to the plant, SETFA [1] | percentage damage caused to the plant, IPOHE [2] | percentage damage caused to the plant, AMARE [3] | percentage damage caused to the plant, ALOMY [4] | percentage damage caused to the plant, ECHCG [5] | percentage damage caused to the plant, SETFA [6] | percentage damage caused to the plant, SOLNI [7] | percentage damage caused to the plant, IPOHE [8] | percentage damage caused to the plant, AMARE [9] | percentage damage caused to the plant, ALOMY [10] | percentage damage caused to the plant, ECHCG [11] | percentage damage caused to the plant, SOLNI [12]
COc1ccc(-n2c(=O)c(C(=O)Nc3nnnn3C)nc3ccccc32)cc1 [Compound 5.009] | 2 (2=20-39%) | 5 (5=80-100%) | 5 (5=80-100%) | 2 (2=20-39%) | 5 (5=80-100%) | 1 (1=0-19%) | 5 (5=80-100%) | 3 (3=40-59%) | 5 (5=80-100%) | 1 (1=0-19%) | 4 (4=60-79%) | 5 (5=80-100%)
Cn1nnnc1NC(=O)c1nc2ccccc2n(-c2cccc(F)c2)c1=O [Compound 5.018] | 5 (5=80-100%) | 5 (5=80-100%) | 5 (5=80-100%) | 5 (5=80-100%) | 5 (5=80-100%) | 5 (5=80-100%) | 5 (5=80-100%) | 5 (5=80-100%) | 5 (5=80-100%) | 5 (5=80-100%) | 5 (5=80-100%) | 5 (5=80-100%)
Cn1nnnc1NC(=O)c1cc2ccccc2n(-c2ccccc2)c1=O [Compound 7.001] | 1 (1=0-19%) | 1 (1=0-19%) | 2 (2=20-39%) | 1 (1=0-19%) | 1 (1=0-19%) | 1 (1=0-19%) | 1 (1=0-19%) | 2 (2=20-39%) | 3 (3=40-59%) | 1 (1=0-19%) | 2 (2=20-39%) | 4 (4=60-79%)
C=Cc1cccc(-n2c(=O)c(C(=O)Nc3nnnn3C)nc3ccccc32)c1 [Compound 5.027] | 5 (5=80-100%) | 5 (5=80-100%) | 5 (5=80-100%) | 5 (5=80-100%) | 5 (5=80-100%) | 5 (5=80-100%) | 5 (5=80-100%) | 5 (5=80-100%) | 5 (5=80-100%) | 5 (5=80-100%) | 5 (5=80-100%) | 5 (5=80-100%)
Cn1nnnc1NC(=O)c1nc2ccccc2n(-c2ccc(OC(F)(F)F)cc2)c1=O [Compound 5.030] | 5 (5=80-100%) | 5 (5=80-100%) | 5 (5=80-100%) | 5 (5=80-100%) | 5 (5=80-100%) | 5 (5=80-100%) | 5 (5=80-100%) | 5 (5=80-100%) | 5 (5=80-100%) | 5 (5=80-100%) | 5 (5=80-100%) | 5 (5=80-100%)
